According to patent publication US20260199294A1, “PEPTIDE DRUG CONJUGATES” (Oncopeptides Innovation AB, priority 2022, published 2026):
“Also recorded” adds a separate entry of the source.

Experiments:
[1] = system: BJ Fibroblasts (normal cells); assay: In vitro cytotoxicity (CellTiter-Glo, 72 h) in BJ fibroblasts; assay type: cell-based, human
Method: (§1) All cells were cultivated in RPMI medium 1640 (IX). All media was supplemented with […] penicillin/streptomycin, 10% heat inactivated FBS, 0.1 mM Sodium Pyruvate, 1×MEM NEAA (ThermoFisher) and 1 mM HEPES. The DERL-2 cells had higher FBS (20%) and 40 ng/mL IL-2 was added. hPBMCs were thawed and allowed to acclimatise overnight and then stimulated with 10 µg/mL PHA-M and 40 ng/mL IL-2 for 4 hours before being exposed to test compounds. All cells, except for hPBMCs, were grown to reach log phase before being exposed to the test compounds.
(§2) Test compounds were dissolved in 100% DMSO and added to a 384 assay plate. Additional DMSO was added to maintain the same final DMSO concentration (0.2%) in all wells. 25 μL cell suspension with a concentration of 100000 cells/mL was added to each well. The cells were cultured in a CO2 incubator at 37° C. for 72 h. Plates were equilibrated to room temperature for 30 minutes before adding 20 μL CellTiter-Glo® 2.0 (Promega) reagent to all wells. The plate was then allowed to stabilize for 20 minutes before recording the luminescence (Em filter 700 nm) in an Envision plate reader.

[2] = system: SU-DHL-4 human lymphoma cell line xenografts; assay: Chicken embryo (in ovo) xenograft model, tumour weight; assay type: in vivo; conditions: 8.4, 33.5, 167.5 μM
Method: Methods: Inoculation of Fertilized White Leghorn eggs was performed with 3×10^6 SU-DHL-4 tumour cells on day 9 (post-fertilisation). Viable eggs were injected with 100 μL of either Example compound 1 (8.4 μM (0.008 mg/kg), 33.5 μM (0.033 mg/kg), 167.5 μM (0.164 mg/kg)), bendamustine (8.4 μM (0.005 mg/kg), 33.5 μM (0.02 mg/kg), 167.5 μM (0.1 mg/kg)) or vehicle on day 11, 13, 15 and 17. On day 18, tumours were removed and weighed.

[3] = Stability of Example compound 1 in solution with various excipients (HPLC); assay type: physicochemical; conditions: 0.4 mg/mL
Method: Ethyl (2S)-2-[[(2S)-2-amino-4-[5-[bis(2-chloroethyl)amino]-1-methyl-benzimidazol-2-yl]butanoyl]amino]-4-methyl-pentanoate (Example compound 1; 19.2 mg, 16.7 mg free base) was dissolved in dimethylacetamide (419 μL) to give a 40 mg/mL stock solution.
Solutions of 0.4 mg/mL of Example compound 1 were prepared by diluting the stock solution in dimethylacetamide (40 mg/mL, 10 μL) with different solutions (990 μL) according to the Table 5 and the stability after 4 h at room temperature was analyzed by HPLC (Analytical HPLC was carried out on an Agilent Series 1100 system using a Kinetex XB C18 (2.6 μm, 3.0×50 mm) column with 0.1% TFA in H2O/CH3CN as mobile phase (acid conditions) (flow 1 mL/min). The excipients were reported in weight ratio excipient:Example compound 1 (free base).

[4] = system: nuclear DNA (HPRT) prepared from MM.1S cells; assay: Direct DNA damage, PCR amplification with HPRT primers; assay type: biochemical, human; conditions: 0.25 μM compound, 30 minutes at 37° C.
Method: (§3) Method: DNA was prepared from MM.1S cells by QIAGEN genomic tip 20/G according to protocol described in Furda et al., Methods Mol Biol, 2012. 1 μg of DNA was treated with 0.25 μM compound for 30 minutes at 37° C. DMSO was used as control treatment. 20 ng of the treated DNA was PCR amplified using Phusion Hot Start II High Fidelity PCR Master Mix (Thermo Scientific) and primers directed to either HPRT or primers directed to mitochondrial DNA (mtDNA) was used, generating 10.4 or 8.9 kb fragments, respectively. The PCR reactions were separated on a 1% agarose gel and visualized by ChemiDoc™ MP Imaging System (BioRad). Example compounds 1, 2 and 38 were investigated, as were compounds 18 and 20, which are metabolites of compound 1. They were compared with bendamustine, melphalan and DMSO control. The results for compounds 1, 2, 18 and 20 with the HPRT primers are shown in FIG. 4(A); the results with the mtDNA primers are shown in FIG. 4(B).

MM.1S cells = assay: Cellular retention/efflux: intracellular and extracellular concentrations by LC-MS/MS; assay type: in vitro ADME, human; conditions: MM.1S cells
Method: Methods: MM.1S cells at 2×10^6 cells/mL were seeded at 250 μL per well in a 96-well plate. Cells were incubated in the presence of a test compound for 5, 15, and 60 min before pelleting cells by centrifugation at +4° C. for 5 min. Cell media was immediately harvested to a second plate and stored at −80° C. until further analysis. Pelleted cells were washed once with ice cold PBS before storage at −80° C. until further analysis.
Cells were lysed and protein in the media were precipitated using acetonitrile dimethylformamide, 9:1 containing internal standard. Samples were centrifuged and the supernatant was analyzed with LC-MS/MS (ACQUITY UPLC-Xevo TQ-S micro) to determine compound concentration.
Example compound 1, bendamustine and melphalan were used as test compounds.
Method: Method described in Biological example 3.
Example compounds 1, 2, 3, 4, 6, 7 and 10 were investigated. Intracellular metabolites are formed from all compounds tested. The compound used for cell treatment was metabolised to the ester-hydrolysed compound (here called Metabolite A) and to the amide-hydrolysed compound (called Metabolite B). The example compound structures and the structures of the two metabolites for the respective compounds were as shown in Table 4. The Metabolites B formed under the conditions tested were compounds with structure as Examples 17 and 18: […]

[5] = system: mitochondrial DNA (mtDNA) prepared from MM.1S cells; assay: Direct DNA damage, PCR amplification with mtDNA primers; assay type: biochemical, human; conditions: 0.25 μM compound, 30 minutes at 37° C.
Method: as §3

[6] = system: hPBMC (Human Peripheral blood mononuclear cells); assay: In vitro cytotoxicity (CellTiter-Glo, 72 h) in hPBMC; assay type: cell-based; conditions: stimulated with PHA-M and IL-2
Method: as §1, §2

## CCOC(=O)[C@H](CC(C)C)NC(=O)[C@@H](N)CCc1nc2cc(N(CCCl)CCCl)ccc2n1C [Example compound 1, Ethyl (2S)-2-[[(2S)-2-amino-4-[5-[bis(2-chloroethyl)amino]-1-methyl-benzimidazol-2-yl]butanoyl]amino]-4-methyl-pentanoate]
[1]
  IC50: 1070 nM
[2]
  effect on tumour weight / tumour growth (in words): dose dependent effect on tumour weight; also recorded: particularly effective at inhibiting tumor growth
[3]; 2-Hydroxypropyl-β-cyclodextrin (Kleptose), Ultrapure water (MilliQ), weight ratio excipient:Ex 1 5
  Ex 1 remaining after 4 h at room temp (%): 78%
[3]; 2-Hydroxypropyl-β-cyclodextrin (Kleptose), Ultrapure water (MilliQ), weight ratio excipient:Ex 1 10
  Ex 1 remaining after 4 h at room temp (%): 84%
[3]; 2-Hydroxypropyl-β-cyclodextrin (Kleptose), Ultrapure water (MilliQ), weight ratio excipient:Ex 1 20
  Ex 1 remaining after 4 h at room temp (%): 85%
[3]; 2-Hydroxypropyl-γ-cyclodextrin, Ultrapure water (MilliQ), weight ratio excipient:Ex 1 5
  Ex 1 remaining after 4 h at room temp (%): 82%
[3]; 2-Hydroxypropyl-γ-cyclodextrin, Ultrapure water (MilliQ), weight ratio excipient:Ex 1 10
  Ex 1 remaining after 4 h at room temp (%): 86%
[3]; 2-Hydroxypropyl-γ-cyclodextrin, Ultrapure water (MilliQ), weight ratio excipient:Ex 1 20
  Ex 1 remaining after 4 h at room temp (%): 79%
[3]; Betadex Sulfobutyl Ether Sodium (Dexolve), Ultrapure water (MilliQ), weight ratio excipient:Ex 1 5
  Ex 1 remaining after 4 h at room temp (%): 99%
[3]; Betadex Sulfobutyl Ether Sodium (Dexolve), Ultrapure water (MilliQ), weight ratio excipient:Ex 1 10
  Ex 1 remaining after 4 h at room temp (%): 101%
[3]; Betadex Sulfobutyl Ether Sodium (Dexolve), Ultrapure water (MilliQ), weight ratio excipient:Ex 1 20
  Ex 1 remaining after 4 h at room temp (%): 98%
[3]; excipient None, solvent 0.9% Saline, ratio 0
  Ex 1 remaining after 4 h at room temp (%): 93%
[3]; excipient None, solvent 5% Glucose, ratio 0
  Ex 1 remaining after 4 h at room temp (%): 80%
[3]; excipient None, solvent DPBS, ratio 0
  Ex 1 remaining after 4 h at room temp (%): 10%
[3]; excipient None, solvent Dimethylacetamide, ratio 0
  Ex 1 remaining after 4 h at room temp (%): 103%
[3]; excipient None, solvent Ultrapure water (MilliQ), ratio 0
  Ex 1 remaining after 4 h at room temp (%): 85%
[3]; γ-Cyclodextrin, Ultrapure water (MilliQ), weight ratio excipient:Ex 1 5
  Ex 1 remaining after 4 h at room temp (%): 78%
[3]; γ-Cyclodextrin, Ultrapure water (MilliQ), weight ratio excipient:Ex 1 10
  Ex 1 remaining after 4 h at room temp (%): 82%
[3]; γ-Cyclodextrin, Ultrapure water (MilliQ), weight ratio excipient:Ex 1 20
  Ex 1 remaining after 4 h at room temp (%): 86%
[4]
  DNA damage on nuclear DNA (HPRT 10.4 kb PCR band): strong DNA damaging effect
MM.1S cells
  intracellular hydrolysis / metabolite formation: hydrolysis of Example compound 1 took place inside the cells
[5]
  DNA damage on mitochondrial DNA (8.9 kb PCR band): strong DNA damaging effect
[6]
  IC50: 5.4 nM
